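Growth conditions: 96-well plates. Treatment: test compound, 48 hours, 5 concentrations. Analysis: linear interpolation between bracketing concentrations; unreached endpoints set to highest concentration. Abbreviation: GI50, concentration required for 50% inhibition of growth.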 Calls of active or inactive are those of the source. Rule as the data show it: active = GI50 up to about 1.1 µM and inactive = higher.
How the values were obtained:
Experiment in all cases: inhibition of tumour cell growth, NCI panel, 48 h
UACC-62 = test system: UACC-62
DMS-273 = test system: DMS-273
A549 = test system: A549
SF-539 = test system: SF-539
Hs-578T = test system: Hs-578T
KM12 = test system: KM12
MDA-MB-435 = test system: MDA-MB-435
NCI-H226 = test system: NCI-H226
SK-OV-3 = test system: SK-OV-3
UACC-257 = test system: UACC-257
COLO 205 = test system: COLO 205
BT-549 = test system: BT-549
SK-MEL-28 = test system: SK-MEL-28
OVCAR-3 = test system: OVCAR-3
DU-145 = test system: DU-145
NCI/ADR-RES = test system: NCI/ADR-RES
HCC 2998 = test system: HCC 2998
HOP-62 = test system: HOP-62
SN12C = test system: SN12C
U-251 = test system: U-251

Measured: GI50

COc1ccc(CCNCCCC2c3ccccc3-c3ccccc32)cc1OC
inactive: UACC-62 16.4 µM | DMS-273 7.28 µM | A549 16.1 µM | SF-539 16.3 µM | Hs-578T 20.1 µM | KM12 15.1 µM | MDA-MB-435 14.7 µM | NCI-H226 15.4 µM | SK-OV-3 18.9 µM | UACC-257 14.3 µM | COLO 205 1.86 µM | BT-549 20.4 µM | SK-MEL-28 9.44 µM | OVCAR-3 16.7 µM | DU-145 15.5 µM | NCI/ADR-RES 17.2 µM | HCC 2998 2.06 µM | HOP-62 16 µM | SN12C 15 µM | U-251 12.9 µM

Source: ChEMBL document CHEMBL1201862, “PubChem BioAssay data set” (2004)
